Earlier results in patent publication US20050084550A1, “Weight reduction and maintenance method for animals” (International Flora Technologies, priority 2001, published 2005).

Key:
food intake in rats = settings: appetite suppressant
food intake in mice = settings: appetite suppressant
food intake in chickens = settings: appetite suppressant

## CO[C@H]1[C@@H](OC)C[C@@H](O[C@@H]2O[C@H](CO)[C@@H](O)[C@H](O)[C@H]2O)/C(=C\C#N)[C@@H]1O [simmondsin]
Food intake in rats
  food intake: reduces food intake
Food intake in mice
  food intake: reduces food intake
hexane
  solubility in hexane: not soluble
Jojoba oil
  solubility in jojoba oil: not soluble
Food intake in chickens
  food intake: reduces food intake
